We go through eight compounds from ChEMBL document CHEMBL1154964, “Acidic elements in histamine H(3) receptor antagonists” (Bioorg Med Chem Lett, 2010).

Bounds are passed on as bounds.

What is called EC50 is the midpoint of the concentration-response curve. The Ki is a dissociation constant, usually derived from enzyme kinetics or from competition with a known ligand.

In one assay the target is T1, Peroxisome proliferator-activated receptor alpha (Homo sapiens, UniProt Q07869).
T1 sequence (Q07869 whole entry): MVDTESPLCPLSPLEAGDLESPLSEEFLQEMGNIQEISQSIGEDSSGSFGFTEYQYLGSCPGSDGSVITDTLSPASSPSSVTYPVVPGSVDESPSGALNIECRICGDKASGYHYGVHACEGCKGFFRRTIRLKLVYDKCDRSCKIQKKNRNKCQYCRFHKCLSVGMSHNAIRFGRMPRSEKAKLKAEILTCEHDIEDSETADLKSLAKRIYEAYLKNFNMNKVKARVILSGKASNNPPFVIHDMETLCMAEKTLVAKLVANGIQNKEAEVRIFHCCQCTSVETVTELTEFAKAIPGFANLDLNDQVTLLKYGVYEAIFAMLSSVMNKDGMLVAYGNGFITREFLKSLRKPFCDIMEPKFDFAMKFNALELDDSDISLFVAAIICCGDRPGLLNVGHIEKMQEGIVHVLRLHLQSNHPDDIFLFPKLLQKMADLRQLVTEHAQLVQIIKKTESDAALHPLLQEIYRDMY
Nature of the assay: Agonist activity at human recombinant PPARalpha LBD expressed in african green monkey COS7 cells coexpressing GAL4 by luciferase reporter gene transactivation assay. It is filed as functional, cell-based, COS-7.
As for `O=C1NC(=S)S/C1=C\c1ccc(OCCCN2CCCCC2)cc1`, the concentration giving a half-maximal response (EC50) is over 10000 nM.

In a further assay the target is Histamine H3 receptor (Homo sapiens, UniProt Q9Y5N1). The assay can be described thus: Displacement of [125I]Iodoproxyfan from human histamine H3 receptor expressed in HEK293 cells after 60 mins by scintillation counting. It is filed as cell-based.
Chain of Histamine H3 receptor (Q9Y5N1 whole entry): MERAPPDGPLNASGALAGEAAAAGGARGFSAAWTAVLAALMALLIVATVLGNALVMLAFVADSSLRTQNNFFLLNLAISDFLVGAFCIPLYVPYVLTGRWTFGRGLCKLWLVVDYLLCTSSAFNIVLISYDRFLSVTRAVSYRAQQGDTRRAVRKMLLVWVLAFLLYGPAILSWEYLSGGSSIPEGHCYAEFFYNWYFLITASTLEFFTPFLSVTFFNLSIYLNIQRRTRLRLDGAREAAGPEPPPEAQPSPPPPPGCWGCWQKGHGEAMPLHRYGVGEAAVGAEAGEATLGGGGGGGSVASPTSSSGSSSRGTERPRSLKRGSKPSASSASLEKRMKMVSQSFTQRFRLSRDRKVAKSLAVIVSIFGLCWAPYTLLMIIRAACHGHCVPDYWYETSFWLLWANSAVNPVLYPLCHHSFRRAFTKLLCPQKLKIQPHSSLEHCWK
`CN(CCC=C1c2ccccc2CCc2ccccc21)Cc1ccc(OCCCN2CCCCC2)cc1` showed a Ki of 0.316 nM.

`O=C(O)c1cn(C2CC2)c2cc(N3CCN(Cc4ccc(OCCCN5CCCCC5)cc4)CC3)c(F)cc2c1=O` showed a Ki of 2 nM.

`O=C1NC(=S)S/C1=C\c1ccc(OCCCN2CCCCC2)cc1` had a Ki of 5.01 nM.

Regarding `O=C(O)C1CSC(c2ccc(OCCCN3CCCCC3)cc2)N1` (centres undefined), the Ki is 10 nM.

`O=C1NC(=O)/C(=C/c2ccc(OCCCN3CCCCC3)cc2)S1` showed an inhibition constant Ki of 7.94 nM.

In turn, `O=C1NC(=O)C(Cc2ccc(OCCCN3CCCCC3)cc2)S1` (centres undefined) had a Ki of 50.1 nM.

For the compound `COC(=O)C1CSC(c2ccc(OCCCN3CCCCC3)cc2)N1` (centres undefined), the inhibitory constant (Ki) is 3.98 nM.

For the compound `c1cc(C2=NCCN2)ccc1OCCCN1CCCCC1`, the Ki was 7.94 nM.
